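Results reflect a 48-hour exposure of cells in 96-well plates to compound at five concentrations. Here, GI50 denotes the concentration required for 50% inhibition of growth.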 Activity calls are given as the source filed them. No stated cut-off is given here; in the data, active = GI50 up to about 1.1 µM and inactive = higher.
How the values were obtained:
Test in all cases: NCI anticancer screen, dose series, 48 h
[1] = test system: A549
[2] = test system: BT-549
[3] = test system: CAKI-1
[4] = test system: COLO 205
[5] = test system: HCC 2998
[6] = test system: HCT-116
[7] = test system: M14
[8] = test system: MCF7
[9] = test system: MDA-MB-231
[10] = test system: MDA-MB-435
[11] = test system: NCI-H226
[12] = test system: NCI-H23
[13] = test system: NCI-H460
[14] = test system: OVCAR-5
[15] = test system: PC-3
[16] = test system: SF-539
[17] = test system: SK-MEL-2
[18] = test system: SNB-75
[19] = test system: UACC-257

Measured: GI50

CC(=O)Nc1ccc2c(C)c3c(nc2n1)[nH]c1ccccc13
inactive: [1] 41.1 µM | [2] 31.9 µM | [3] 24 µM | [4] 17.2 µM | [5] 33 µM | [6] 21.6 µM | [7] 25.4 µM | [8] 19.2 µM | [9] 35.1 µM | [10] 29.6 µM | [11] 23.4 µM | [12] 25.2 µM | [13] 21.1 µM | [14] 51.4 µM | [15] 27.2 µM | [16] 57.3 µM | [17] 22.6 µM | [18] 22.1 µM | [19] 32.9 µM

COc1cccc(CCn2c(N)c(-c3cc(Cl)cc(Cl)c3)c3ccc([N+](=O)[O-])cc3c2=O)c1
inactive: [1] 4.76 µM | [2] 3.53 µM | [3] 3.5 µM | [4] 2.03 µM | [5] 3.51 µM | [6] 2.84 µM | [7] 3.95 µM | [8] 4.62 µM | [9] 4.68 µM | [10] 3.57 µM | [11] 3.67 µM | [12] 2.35 µM | [13] 3.04 µM | [14] 18.1 µM | [15] 3.1 µM | [16] 77.3 µM | [17] 3.9 µM | [18] 4.39 µM | [19] 3.33 µM

CC(C)OC(=O)c1ccc(NCc2cc(O)ccc2O)cc1
inactive: [1] 7.48 µM | [2] 2.38 µM | [3] 1.28 µM | [4] 3.06 µM | [5] 11.1 µM | [6] 5.81 µM | [7] 6.84 µM | [8] 1.66 µM | [9] 2.2 µM | [10] 2.06 µM | [11] 3.21 µM | [12] 4.36 µM | [13] 11.1 µM | [14] 10.4 µM | [15] 1.8 µM | [16] 1.53 µM | [17] 10.9 µM | [18] 4.61 µM | [19] 10.3 µM

CCOC(=O)C(=O)C(/C(=N/N(C)C)C(=O)Nc1ccc(C)cc1C)c1nc2ccccc2nc1O (stereo not given)
inactive: [1] > 100 µM | [2] > 100 µM | [3] > 100 µM | [5] > 100 µM | [6] > 100 µM | [7] > 100 µM | [8] > 100 µM | [9] > 100 µM | [10] > 100 µM | [11] > 100 µM | [12] > 100 µM | [13] > 100 µM | [14] > 100 µM | [15] > 100 µM | [16] > 100 µM | [17] > 100 µM | [18] > 100 µM | [19] > 100 µM

— ChEMBL document CHEMBL1201862, “PubChem BioAssay data set” (2004)
